Experimental data as given in patent US11691969B2, “Pyridazinones as PARP7 inhibtors” (Ribon Therapeutics, Inc., priority 2019, dated 2023).

The molecules below were run against PARP7 (Homo sapiens (Human), UniProt Q7Z3E1) (assay: TR-FRET assay: displacement of biotinylated Probe A from the TIPARP active site (Enzymatic Assay for Inhibition of PARP7)). Settings: TIPARP 6 nM, Probe A 2 nM, 25° C.
Type: binding
Protocol: Example A. Enzymatic Assay for Inhibition of PARP7
Displacement of Probe A, a biotinylated probe binding to the TIPARP active site, was measured using a time-resolved fluorescence energy transfer (TR-FRET) assay. 20 nL of a dose response curve of each test compound was spotted in black 384-well polystyrene proxiplates (Perkin Elmer) using a Mosquito (TTP Labtech). Reactions were performed in a 8 μl volume by adding 6 μL of TIPARP and Probe A in assay buffer (20 mM HEPES pH=8, 100 mM NaCl, 0.1% bovine serum albumin, 2 mM DTT and 0.002% Tween20), incubating with test compound at 25° C. for 30 min, then adding 2 μL of ULight-anti 6×His and LANCE Eu-W1024 labeled streptavidin (Perkin Elmer). The final concentrations of TIPARP and Probe A were 6 nM and 2 nM, respectively. The final concentration of ULight-anti 6×His and LANCE Eu-W1024 labeled streptavidin were 4 nM and 0.25 nM, respectively. Reactions were incubated at 25° C. for an additional 30 min, then read on an Envision platereader equipped with a LANCE/DELFIA top mirror (Perkin Elmer) using excitation of 320 nm and emission of 615 nm and […] with a […]. The ratio of the 665/615 nm emission were calculated for each well to determine the amount of complex of TIPARP and Probe Ain each well. Control wells containing a negative control of 0.25% DMSO vehicle or a positive control of 100 μM 5-(5-(piperidin-4-yloxy)isoindolin-2-yl)-4-(trifluoromethyl)pyridazin-3(2H)-one were used to calculate the % inhibition as described below:
[formula] where TRFcmpd is the TR-FRET ratio from the compound treated well, TRFmin is the TR-FRET ratio from the 5-(5-(piperidin-4-yloxy)isoindolin-2-yl)-4-(trifluoromethyl)pyridazin-3(2H)-one—treated positive control well and TRFmax is the TR-FRET ratio from the DMSO-treated negative control well. The % inhibition values were plotted as a function of compound concentration and the following 4-parameter fit was applied to derive the IC50 values:
[formula] where top and bottom are normally allowed to float, but may be fixed at 100 or 0 respectively in a 3-parameter fit. The Hill Coefficient is normally allowed to float but may also be fixed at 1 in a 3-parameter fit. Y is the % inhibition and X is the compound concentration. Synthesis of Probe A

Chain of PARP7 (Q7Z3E1 whole entry): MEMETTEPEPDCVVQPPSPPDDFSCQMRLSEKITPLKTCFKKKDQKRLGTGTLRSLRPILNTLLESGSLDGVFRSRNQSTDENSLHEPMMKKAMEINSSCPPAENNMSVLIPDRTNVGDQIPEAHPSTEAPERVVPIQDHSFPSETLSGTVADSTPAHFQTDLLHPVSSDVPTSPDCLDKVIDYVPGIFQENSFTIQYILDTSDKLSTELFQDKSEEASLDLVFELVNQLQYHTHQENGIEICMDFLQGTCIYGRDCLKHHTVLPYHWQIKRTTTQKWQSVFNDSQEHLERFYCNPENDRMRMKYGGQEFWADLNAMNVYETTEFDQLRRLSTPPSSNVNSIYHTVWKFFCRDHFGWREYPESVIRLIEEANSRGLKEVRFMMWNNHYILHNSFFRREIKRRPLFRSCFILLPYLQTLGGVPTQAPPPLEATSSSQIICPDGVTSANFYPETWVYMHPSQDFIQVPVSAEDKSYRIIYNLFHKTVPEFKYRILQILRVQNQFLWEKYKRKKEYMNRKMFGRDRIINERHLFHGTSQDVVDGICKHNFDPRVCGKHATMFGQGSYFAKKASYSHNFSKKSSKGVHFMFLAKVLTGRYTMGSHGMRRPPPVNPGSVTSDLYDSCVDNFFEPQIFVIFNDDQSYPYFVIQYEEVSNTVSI

SMILES	IC50
C[C@@H](COC1CCN(C2CCN(c3ccc(C#N)cn3)CC2)C1=O)Oc1cn[nH]c(=O)c1C(F)(F)F (stereo partly drawn) [Example 30, 6-(4-(2-oxo-3-((S)-2-((6-oxo-5-(trifluoromethyl)-1,6-dihydropyridazin-4-yl)oxy)propoxy)pyrrolidin-1-yl)piperidin-1-yl)nicotinonitrile]	< 100 nM
N#Cc1ccc(N2CCC(N3CC[C@H](OCCNc4cn[nH]c(=O)c4C(F)(F)F)C3=O)CC2)nc1 [Example 36B]	< 100 nM
C[C@@H](CO[C@@H]1CCCN(C2CCN(c3ncc(C(F)(F)F)cn3)CC2)C1=O)Nc1cn[nH]c(=O)c1C(F)(F)F [Example 34B, (R)-3-((S)-2-((6-oxo-5-(trifluoromethyl)-1,6-dihydropyridazin-4-yl)amino)propoxy)-1′-(5-(trifluoromethyl)pyrimidin-2-yl)-[1,4′-bipiperidin]-2-one]	< 100 nM
COC[C@@H](CO[C@H]1CCN(C2CCN(c3ccc(C#N)cn3)CC2)C1=O)Oc1cn[nH]c(=O)c1C(F)(F)F [Example 50A, 6-(4-((S)-3-((S)-3-methoxy-2-((6-oxo-5-(trifluoromethyl)-1,6-dihydropyridazin-4-yl)oxy)propoxy)-2-oxopyrrolidin-1-yl)piperidin-1-yl)nicotinonitrile]	100 to 1000 nM
C[C@@H](CO[C@@H]1CCN([C@@H]2CCN(c3ccc(C#N)cn3)CC2(F)F)C1=O)Nc1cn[nH]c(=O)c1C(F)(F)F (single isomer, unassigned) [Example 40A]	< 100 nM
COC[C@@H](CO[C@@H]1CCN(C2CCN(c3ncc(C(F)(F)F)cn3)CC2)C1=O)Nc1cn[nH]c(=O)c1C(F)(F)F [Example 19B, 5-(((S)-1-methoxy-3-(((R)-2-oxo-1-(1-(5-(trifluoromethyl)pyrimidin-2-yl)piperidin-4-yl)pyrrolidin-3-yl)oxy)propan-2-yl)amino)-4-(trifluoromethyl)pyridazin-3(2H)-one]	< 100 nM
C[C@@H](COC1CCN(C2CCN(c3ncc(C(F)(F)F)cn3)CC2)C1)Nc1cn[nH]c(=O)c1C(F)(F)F (stereo partly drawn) [Example 21, 4-(trifluoromethyl)-5-(((2S)-1-((1-(1-(5-(trifluoromethyl)pyrimidin-2-yl)piperidin-4-yl)pyrrolidin-3-yl)oxy)propan-2-yl)amino)pyridazin-3(2H)-one]	100 to 1000 nM
C[C@@H](CO[C@H]1C(=O)N(C2CCN(c3ncc(C(F)(F)F)cn3)CC2)C[C@@H]1C)Nc1cn[nH]c(=O)c1C(F)(F)F [Example 37B, 5-(((S)-1-(((3R,4S)-4-methyl-2-oxo-1-(1-(5-(trifluoromethyl)pyrimidin-2-yl)piperidin-4-yl)pyrrolidin-3-yl)oxy)propan-2-yl)amino)-4-(trifluoromethyl)pyridazin-3(2H)-one]	< 100 nM
CCN(C(=O)COC[C@H](C)Nc1cn[nH]c(=O)c1C(F)(F)F)C1CCN(c2ncc(C(F)(F)F)cn2)CC1 [Example 7, (S)—N-ethyl-2-(2-((6-oxo-5-(trifluoromethyl)-1,6-dihydropyridazin-4-yl)amino)propoxy)-N-(1-(5-(trifluoromethyl)pyrimidin-2-yl)piperidin-4-yl)acetamide]	< 100 nM
C[C@@H](CO[C@@H]1CCN([C@H]2CCN(c3ncc(C(F)(F)F)cn3)C[C@@H]2O)C1=O)Nc1cn[nH]c(=O)c1C(F)(F)F [Example 58, 5-(((S)-1-(((R)-1-((3S,4S)-3-hydroxy-1-(5-(trifluoromethyl)pyrimidin-2-yl)piperidin-4-yl)-2-oxopyrrolidin-3-yl)oxy)propan-2-yl)amino)-4-(trifluoromethyl)pyridazin-3(2H)-one]	< 100 nM
COC[C@@H](CO[C@H]1CCN(C2CCN(c3ncc(C(F)(F)F)cn3)CC2)C1=O)Oc1cn[nH]c(=O)c1Br [Example 56A, 4-Bromo-5-(((S)-1-methoxy-3-(((S)-2-oxo-1-(1-(5-(trifluoromethyl)pyrimidin-2-yl)piperidin-4-yl)pyrrolidin-3-yl)oxy)propan-2-yl)oxy)pyridazin-3(2H)-one]	≥ 1000 nM
C[C@@H](CO[C@@H]1CCN([C@H]2CCN(c3ccc(C#N)cn3)CC2(F)F)C1=O)Nc1cn[nH]c(=O)c1C(F)(F)F (single isomer, unassigned) [Example 40B]	< 100 nM
C[C@@H](CN[C@@H]1CCN(C2CCN(c3ncc(C(F)(F)F)cn3)CC2)C1=O)Nc1cn[nH]c(=O)c1C(F)(F)F [Example 26B, 5-(((S)-1-(((R)-2-oxo-1-(1-(5-(trifluoromethyl)pyrimidin-2-yl)piperidin-4-yl)pyrrolidin-3-yl)amino)propan-2-yl)amino)-4-(trifluoromethyl)pyridazin-3(2H)-one]	< 100 nM
C[C@@H](CO[C@H]1CCN(C2CCN(c3cnc(C(F)(F)F)cn3)CC2)C1=O)Oc1cn[nH]c(=O)c1C(F)(F)F [Example 31A, 5-(((S)-1-(((S)-2-oxo-1-(1-(5-(trifluoromethyl)pyrazin-2-yl)piperidin-4-yl)pyrrolidin-3-yl)oxy)propan-2-yl)oxy)-4-(trifluoromethyl)pyridazin-3(2H)-one]	< 100 nM
C[C@@H](COC1CCN(C2CCN(c3ncc(C(F)(F)F)cn3)CC2)C1=O)Nc1cn[nH]c(=O)c1Cl (stereo partly drawn) [Example 11, 4-chloro-5-((S)-1-(2-oxo-1-(1-(5-(trifluoromethyl)pyrimidin-2-yl)piperidin-4-yl)pyrrolidin-3-yloxy)propan-2-ylamino)pyridazin-3(2H)-one]	< 100 nM
C[C@@H](COCC(=O)N(C)C1CCN(c2ncc(C(F)(F)F)s2)CC1)Nc1cn[nH]c(=O)c1C(F)(F)F [Example 3, (S)—N-methyl-2-(2-((6-oxo-5-(trifluoromethyl)-1,6-dihydropyridazin-4-yl)amino)propoxy)-N-(1-(5-(trifluoromethyl)thiazol-2-yl)piperidin-4-yl)acetamide]	< 100 nM
C[C@@H](CO[C@@H]1CCN(C2CCN(c3cnc(C(F)(F)F)cn3)CC2)C1=O)Nc1cn[nH]c(=O)c1C(F)(F)F [Example 13B, 5-(((S)-1-(((R)-2-oxo-1-(1-(5-(trifluoromethyl)pyrazin-2-yl)piperidin-4-yl)pyrrolidin-3-yl)oxy)propan-2-yl)amino)-4-(trifluoromethyl)pyridazin-3(2H)-one]	< 100 nM
C[C@@H](COC1CCN([C@@H]2CCN(c3ncc(C(F)(F)F)cn3)C[C@H]2O)C1=O)Oc1cn[nH]c(=O)c1C(F)(F)F (stereo partly drawn) [Example 65, 5-(((2S)-1-((1-((3R,4R)-3-hydroxy-1-(5-(trifluoromethyl)pyrimidin-2-yl)piperidin-4-yl)-2-oxopyrrolidin-3-yl)oxy)propan-2-yl)oxy)-4-(trifluoromethyl)pyridazin-3(2H)-one]	< 100 nM
C[C@@H](COCC(=O)NC1CCN(c2ncc(C(F)(F)F)cn2)CC1)Nc1cn[nH]c(=O)c1C(F)(F)F [Example 1, (S)-2-(2-(6-oxo-5-(trifluoromethyl)-1,6-dihydropyridazin-4-ylamino)propoxy)-N-(1-(5-(trifluoromethyl)pyrimidin-2-yl)piperidin-4-yl)acetamide]	< 100 nM
C[C@@H](CO[C@H]1CCN(C2CCN(c3ncc(C(F)(F)F)cn3)CC2)C1=O)Oc1cn[nH]c(=O)c1Cl [Example 47A, 4-chloro-5-(((S)-1-(((S)-2-oxo-1-(1-(5-(trifluoromethyl)pyrimidin-2-yl)piperidin-4-yl)pyrrolidin-3-yl)oxy)propan-2-yl)oxy)pyridazin-3(2H)-one]	100 to 1000 nM
C[C@@H](COCC(=O)N[C@H]1CCN(c2ncc(C(F)(F)F)cn2)C[C@@H]1O)Nc1cn[nH]c(=O)c1C(F)(F)F (single isomer, unassigned) [Example 33B]	< 100 nM
C[C@@H](CO[C@@H]1CCN(C2CCN(c3ncc(F)cn3)CC2)C1=O)Nc1cn[nH]c(=O)c1C(F)(F)F [Example 42, 5-(((S)-1-(((R)-1-(1-(5-fluoropyrimidin-2-yl)piperidin-4-yl)-2-oxopyrrolidin-3-yl)oxy)propan-2-yl)amino)-4-(trifluoromethyl)pyridazin-3(2H)-one]	< 100 nM
COC[C@@H](CO[C@H]1CCN(C2CCN(c3ncc(C(F)(F)F)cn3)CC2)C1=O)Nc1cn[nH]c(=O)c1C(F)(F)F [Example 19A, 5-(((S)-1-methoxy-3-(((S)-2-oxo-1-(1-(5-(trifluoromethyl)pyrimidin-2-yl)piperidin-4-yl)pyrrolidin-3-yl)oxy)propan-2-yl)amino)-4-(trifluoromethyl)pyridazin-3(2H)-one]	100 to 1000 nM
C[C@@H](COC1CCN(C2CCN(c3cnc(C(F)(F)F)cn3)CC2)C1=O)Nc1cn[nH]c(=O)c1Br (stereo partly drawn) [Example 12, 4-bromo-5-(((2S)-1-((2-oxo-1-(1-(5-(trifluoromethyl)pyrazin-2-yl)piperidin-4-yl)pyrrolidin-3-yl)oxy)propan-2-yl)amino)pyridazin-3(2H)-one]	< 100 nM
